We go through four compounds from patent US5460820A, “Methods for providing testosterone and optionally estrogen replacement therapy to women” (TheraTech, Inc., priority 1993, dated 1995).

The conditions of data set [1]: injectable esters; cited from earlier work.
Data set [2] can be described thus: solubility in receiver medium. Conditions: 0.02% sodium azide solution, skin surface temperature 32°±1° C. Format: physicochemical.
The conditions of data set [3]: without some form of permeation enhancement; cited from earlier work.
For data set [4] the following is noted: in vivo; cited from earlier work.

On to `CCCCCCC(=O)O[C@H]1CC[C@H]2[C@@H]3CCC4=CC(=O)CC[C@]4(C)[C@H]3CC[C@]12C` [testosterone enanthate], for which the “fluctuations in hormone levels” value in data set [1] was “marked supraphysiological fluctuations in hormone levels”.

As for `C[C@]12CC[C@H]3[C@@H](CCC4=CC(=O)CC[C@@]43C)[C@@H]1CC[C@@H]2O` [testosterone], the “solubility in receiver medium” value in data set [2] is “adequate to ensure sink conditions throughout the experiment”. Further, in data set [3], the “passage through non-scrotal skin” value was “does not pass through non-scrotal skin at practical fluxes”.

In the case of `CCC(=O)O[C@H]1CC[C@H]2[C@@H]3CCC4=CC(=O)CC[C@]4(C)[C@H]3CC[C@]12C` [testosterone propionate], in data set [1], the “fluctuations in hormone levels” value was “marked supraphysiological fluctuations in hormone levels”.

In the case of `C[C@]12CCC(=O)C=C1CC[C@@H]1[C@@H]2CC[C@@]2(C)[C@H]1CC[C@]2(C)O` [methyl testosterone], in data set [4], the hepatotoxicity result is “known to be hepatotoxic”.
